Results: the supplement of paper PMC10307832

Legend:
Assay in all cases: relative viability (nuclei count vs DMSO), 5 days (fraction); higher = more cells survive
Selisistat + Trametinib = compound: C1CC(C2=C(C1)C3=C(N2)C=CC(=C3)Cl)C(=O)N [Selisistat] + CC(=O)Nc1cccc(-n2c(=O)n(C3CC3)c(=O)c3c(Nc4ccc(I)cc4F)n(C)c(=O)c(C)c32)c1 [Trametinib] (partner 0.02 µM)
In short: (§1)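 Each reported value is a median over duplicate plates. It expresses relative viability: treated-well nuclei count divided by vehicle-well nuclei count. Lung cancer cell lines in 1536-well plates were dosed by pin tool a day after seeding, alone with one drug or with a fixed anchor-drug dose plus five library-drug doses (not always all listed) in √10 steps, and nuclei were counted after 5 days.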

Serdemetan + Pictilisib = compound: c1ccc2c(CCNc3ccc(Nc4ccncc4)cc3)c[nH]c2c1 [Serdemetan] + CS(=O)(=O)N1CCN(Cc2cc3nc(-c4cccc5[nH]ncc45)nc(N4CCOCC4)c3s2)CC1 [Pictilisib] (partner 1 µM)
In short: as §1

Serdemetan + OSI-027 = compound: c1ccc2c(CCNc3ccc(Nc4ccncc4)cc3)c[nH]c2c1 [Serdemetan] + COc1cccc2cc(-c3nc([C@H]4CC[C@H](C(=O)O)CC4)n4ncnc(N)c34)[nH]c12 [OSI-027] (partner 0.5 µM)
In short: as §1

Selisistat + Dasatinib = compound: C1CC(C2=C(C1)C3=C(N2)C=CC(=C3)Cl)C(=O)N [Selisistat] + Cc1nc(Nc2ncc(C(=O)Nc3c(C)cccc3Cl)s2)cc(N2CCN(CCO)CC2)n1 [Dasatinib] (partner 0.075 µM)
In short: as §1

Cell Line: UMC-11
- relative viability (Selisistat + Trametinib; first compound 0.4 µM): 0.575
- relative viability (Selisistat + Trametinib; first compound 1.265 µM): 0.653
- relative viability (Selisistat + Trametinib; first compound 4 µM): 0.596
- relative viability (Selisistat + Trametinib; first compound 12.65 µM): 0.742
- relative viability (Selisistat + Trametinib; first compound 40 µM): 0.717
- relative viability (Serdemetan + Pictilisib; first compound 0.04 µM): 0.813
- relative viability (Serdemetan + Pictilisib; first compound 0.1265 µM): 0.866
- relative viability (Serdemetan + Pictilisib; first compound 0.4 µM): 0.824
- relative viability (Serdemetan + Pictilisib; first compound 1.265 µM): 0.47
- relative viability (Serdemetan + Pictilisib; first compound 4 µM): 0.737
- relative viability (Serdemetan + OSI-027; first compound 0.04 µM): 0.563
- relative viability (Serdemetan + OSI-027; first compound 0.1265 µM): 0.485
- relative viability (Serdemetan + OSI-027; first compound 4 µM): 0.428
- relative viability (Selisistat + Dasatinib; first compound 0.4 µM): 0.434
- relative viability (Selisistat + Dasatinib; first compound 1.265 µM): 0.477
- relative viability (Selisistat + Dasatinib; first compound 4 µM): 0.521
- relative viability (Selisistat + Dasatinib; first compound 12.65 µM): 0.476
- relative viability (Selisistat + Dasatinib; first compound 40 µM): 0.559
